According to patent US20130131008A1, “LIPOPHILIC MONOPHOSPHORYLATED DERIVATIVES AND NANOPARTICLES” (BOARD OF REGENTS, THE UNIVERSITY OF TEXAS SYSTEM, priority 2011, published 2013):
Where two headings read alike, the source gives them in different places.

What was measured:
CCRF-CEM cells = assay: In vitro cytotoxicity assay (MTT), 72 h; type: cell-based, human; conditions: Homo sapiens, CCRF-CEM, 72 h incubation
From the text: (§1) Human leukemia cell line CCRF-CEM (CCL-119), human pancreatic cancer cell lines PANC-1 (CRL-1469), MIA PaCa-2 (CRL-1420), and BxPC-3 (CRL-1687), human breast adenocarcinoma cell line MCF-7 (HTB-22), and mouse lung cancer cell line TC-1 (CRL-2785) were from the American Type Culture Collection (Rockville, Md.). CCRF-CEM-AraC-8C cells (hENT1 deficient) and CCRF-CEM/dCK^−/− cells (dCK deficient) were kindly provided by Dr. Buddy Ullmann (Oregon Health & Science University, Portland, Oreg.) and Dr. Margaret Black (Washington State University, Pullman, Wash.), respectively. L1210 wt and L1210 10K were kindly supplied by Dr. Lars Petter Jordheim (Université Claude Bernard Lyon I, Lyon, France). TC-1-GR cells were previously developed in our lab. CCRF-CEM, CCRF-CEM-AraC-8C, CCRF-CEM/dCK^−/−, L1210 wt, L1210 10K, TC-1, and TC-1-GR cells were cultured in RPMI 1640 medium. MCF-7 and PANC-1 cells were cultured in Dulbecco's modified Eagle medium (DMEM), MIA PaCa-2 cells were cultured in DMEM medium with 2.5% horse serum. All media were supplemented with 10% fetal bovine serum (FBS), 100 U/mL of penicillin, and 100 μg/mL of streptomycin (all from Invitrogen, Carlsbad, Calif.).
(§2) Cells (5,000/well) were seeded in 96-well plates. After overnight incubation, they were treated with various concentrations of gemcitabine HCl, gemcitabine derivatives, or gemcitabine derivatives in nanoparticles at 37° C., 5% CO2. TC-1 and TC-1-GR cells were incubated for 48 h. CCRF-CEM, CCRF-CEM-AraC-8C, CCRF-CEM/dCK^−/−, L1210 wt, L1210 10K, and MCF-7 cells were incubated for 72 h, and MIA PaCa-2 and PANC-1 for 96 h. Gemcitabine HCl was dissolved in phosphate-buffered saline (PBS), and gemcitabine derivatives were dissolved in dimethyl sulfoxide (DMSO). […] The number of viable cells after the incubation was determined using an MTT assay. Briefly, 3-(4,5-dimethylthiazol-2-yl)-2,5-diphenyltetrazolium bromide (20 μl, 5 mg/mL) was added in each well and incubated for 3 h. Formazan crystals were solubilized with acidified isopropanol (150 μl) (for CCRF-CEM, CCRF-CEM-AraC-8C, CCRF-CEM/dCK^−/−, L1210 wt, and L1210 10K cells) or DMSO (150 μl) (for TC-1, TC-1-GR, MCF-7, PANC-1, and MIA PaCa-2). Absorbance was measured using a BioTek Synergy™ HT Multi-Mode Microplate Reader (BioTek Instruments, Winooski, Vt.) at 570 nm and 630 nm. The fraction of affected (dead) cells (Fa) and the fraction of unaffected (live) cells (Fu) at every dose were calculated, and the Log(Fa/Fu) values were plotted against the Log(concentration of gemcitabine). IC50 was the dose at Log(Fa/Fu)=0, See e.g., Chou, T. C. & Talalay, P., 1984, Adv. Enzyme Regul. 22:27-55. The experiment was repeated at least three times.

TC-1-GR cells = assay: cells; type: cell-based
From the text: as §1, §2

L1210 10K cells = assay: In vitro cytotoxicity assay (MTT), 72 h, dCK deficient cells; type: cell-based, murine
From the text: as §1
Cells (5,000/well) were seeded in 96-well plates. After overnight incubation, they were treated with various concentrations of gemcitabine HCl, gemcitabine derivatives, or gemcitabine derivatives in nanoparticles at 37° C., 5% CO2. TC-1 and TC-1-GR cells were incubated for 48 h. CCRF-CEM, CCRF-CEM-AraC-8C, CCRF-CEM/dCK^−/−, L1210 wt, L1210 10K, and MCF-7 cells were incubated for 72 h, and MIA PaCa-2 and PANC-1 for 96 h. […] The number of viable cells after the incubation was determined using an MTT assay. […] Absorbance was measured using a BioTek Synergy™ HT Multi-Mode Microplate Reader (BioTek Instruments, Winooski, Vt.) at 570 nm and 630 nm. The fraction of affected (dead) cells (Fa) and the fraction of unaffected (live) cells (Fu) at every dose were calculated, and the Log(Fa/Fu) values were plotted against the Log(concentration of gemcitabine). […]

PANC-1 cells = assay: In vitro cytotoxicity assay (MTT), 96 h, RRM2 over-expressing cells; type: cell-based, human; conditions: for Ratio of IC50 in PANC-1 to that in MIA PaCa-2: HCl
From the text: as §1, §2

MIA PaCa-2 cells [1] = conditions: literature value; read-out: IC50 in MIA PaCa-2 cells reported by Duxbury et al.; cited from earlier work
L1210 wt cells = assay: In vitro cytotoxicity assay (MTT), 72 h; type: cell-based, murine; conditions: Mus musculus, 72 h incubation
From the text: as §1, with “MCF-7 and PANC-1 cells were cultured in Dulbecco's modified Eagle medium (DMEM), MIA PaCa-2 cells were cultured in DMEM medium with 2.5% horse serum. All media were supplemented with 10% fetal bovine serum (FBS), 100 U/mL of penicillin, and 100 μg/mL of streptomycin (all from Invitrogen, Carlsbad, Calif.).” left out
Cells (5,000/well) were seeded in 96-well plates. […] The number of viable cells after the incubation was determined using an MTT assay. […] Absorbance was measured using a BioTek Synergy™ HT Multi-Mode Microplate Reader (BioTek Instruments, Winooski, Vt.) at 570 nm and 630 nm. The fraction of affected (dead) cells (Fa) and the fraction of unaffected (live) cells (Fu) at every dose were calculated, and the Log(Fa/Fu) values were plotted against the Log(concentration of gemcitabine). […]

TC-1 cells = assay: In vitro cytotoxicity assay (MTT), 48 h; type: cell-based; conditions: Mus musculus, TC-1, 48 h incubation
From the text: as §1, §2

MIA PaCa-2 cells [2] = assay: In vitro cytotoxicity assay (MTT), 96 h; type: cell-based, human; conditions: Homo sapiens, MIA PaCa-2, 96 h incubation
From the text: as §1, §2

B16-F10 melanoma tumor = assay: Antitumor activity of GemC18/PEG-C18 micelles in mice with B16-F10 tumors (Example 20); type: in vivo, mouse; conditions: C57BL/6 mice, tail vein injection, 0.283 mg GemHCl or molar equivalent GemC18; 2 doses (micelles 3 doses), 3 days apart
Procedure: The in vivo antitumor activity of GemC18/PEG-C18 micelles was evaluated in C57BL/6 mice with subcutaneously inoculated B16-F10 cells (5.0×10^5/mouse) in the right flank. Treatments were given 6 days after tumor cell inoculation by tail vein injection with normal saline, Gemcitabine HCl (GemHCl) solution, GemC18 solution, blank PEG-C18 micelles, or GemC18/PEG-C18 micelles. The dose was 0.283 mg of GemHCl or molar equivalent amount of GemC18. All groups received a second dose three days after the first dose, while the GemC18/PEG-C18 micelle group also received a third dose 3 days after the second dose. Tumor sizes were measured with calipers in two perpendicular diameters every day and reported as tumor volume (V=½ [a×b^2], a=longer diameter, b=shorter diameter).

TC-1-GR tumors = conditions: mice with pre-established TC-1-GR tumors; cited from earlier work
CCRF-CEM-AraC-8C cells = assay: In vitro cytotoxicity assay (MTT), 72 h, hENT1 deficient cells; type: cell-based, human; conditions: for Ratio of IC50 in CCRF-CEM-AraC-8C to that in CCRF-CEM: HCl
From the text: as §1, §2

[3] = IC50 of gemcitabine HCl divided by that of the derivatives or derivatives in nanoparticles

## Cl.Nc1ccn([C@@H]2O[C@H](CO)[C@@H](O)C2(F)F)c(=O)n1 [Gemcitabine HCl, 2′,2′-difluorodeoxycytidine HCl, reference compound]
CCRF-CEM cells
  IC50: 2.9 ± 1.8 nM
TC-1-GR cells
  Ratio of IC50 in TC-1-GR to that in TC-1: 2,497
TC-1-GR cells; [3]
  Ratio of IC50 values in TC-1-GR cells: 1
TC-1-GR cells; Mus musculus, MTT, 48 h incubation, RRM1 over-expressing
  IC50: 36700 ± 5100 nM
L1210 10K cells
  Ratio of IC50 in L1210 10K to that in L1210 wt: 17,046
L1210 10K cells; IC50 of gemcitabine HCl divided by that of the nanoparticles
  Ratio of IC50 values in L1210 10K cells: 1
L1210 10K cells; Mus musculus, L1210, MTT, 72 h incubation, dCK deficient
  IC50: 22200 ± 3700 nM
PANC-1 cells
  Ratio of IC50 in PANC-1 to that in MIA PaCa-2: >8,000
PANC-1 cells; Homo sapiens, PANC-1, MTT, 96 h incubation, RRM2 over-expressing
  IC50: > 400000 nM
PANC-1 cells; after 96 h of incubation with 400 μM
  PANC-1 cells still alive: more than 50%
PANC-1 cells; listed as gemcitabine HCl
  Ratio of IC50 in PANC-1 to that in MIA PaCa-2: more than 8,000
MIA PaCa-2 cells [1]
  IC50: 40 nM
L1210 wt cells
  IC50: 1.3 ± 0.3 nM
TC-1 cells
  IC50: 14.7 ± 2.8 nM
MIA PaCa-2 cells [2]
  IC50: 49.7 ± 17.7 nM
B16-F10 melanoma tumor
  B16-F10 tumor growth (tumor volume): not significant different from that in mice that received normal saline
TC-1-GR tumors
  TC-1-GR tumor growth in mice (previous study): did not show any significant anti-tumor activity
CCRF-CEM-AraC-8C cells
  Ratio of IC50 in CCRF-CEM-AraC-8C to that in CCRF-CEM: 333
CCRF-CEM-AraC-8C cells; Homo sapiens, MTT, 72 h incubation, hENT1 deficient
  IC50: 998.8 ± 9.4 nM
CCRF-CEM-AraC-8C cells; [3]
  Ratio of IC50 values in CEM-AraC-8C cells: 1
CCRF-CEM-AraC-8C cells; listed as gemcitabine HCl
  Ratio of IC50 in CCRF-CEM-AraC-8C to that in CCRF-CEM: 344
